Results: patent US10752612B2, “PLK4 inhibitors” (LUDWIG INSTITUTE FOR CANCER RESEARCH LTD, priority 2015, dated 2020)

Molecular target: T1, human Plk4 kinase domain (aa 2-275) (Homo sapiens, UniProt O00444)
T1 construct: purified 6×His-tagged human Plk4 kinase domain (aa 2-275); 6xHis; made in house; host or cells: E. coli
T1 sequence (O00444 2-275): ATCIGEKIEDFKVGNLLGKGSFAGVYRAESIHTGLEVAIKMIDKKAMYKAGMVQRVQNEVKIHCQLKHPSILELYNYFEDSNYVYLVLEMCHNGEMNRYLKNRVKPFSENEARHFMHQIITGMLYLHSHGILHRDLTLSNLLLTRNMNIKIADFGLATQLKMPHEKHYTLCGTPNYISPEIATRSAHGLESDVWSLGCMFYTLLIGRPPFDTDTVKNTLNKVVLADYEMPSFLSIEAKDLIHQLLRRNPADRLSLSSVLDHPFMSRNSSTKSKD
Assay: Plk4 kinase assay (ADP-Glo)
Type: biochemical
Conditions: Table 1
Description: Kinase assays. […] The Plk4 concentration in the final reaction was 2.5-10 nM with a final pH of 8.0. […] Reactions were allowed to proceed for 4-16 hours at 25° C. Detection was performed using ADP-Glo reagent (Promega), following manufacturer's instructions. Luminescence was measured on an Infinite M1000 plate reader (Tecan). Data were fit using Prism (GraphPad) and Kis were calculated from IC50 data using the Cheng and Prusoff equation (37) or the Copeland formalism for tight-binding inhibitors (38).

Structure (SMILES) | IC50
COc1c(Nc2cc(C)[nH]n2)nc(Sc2ccc(S(=O)(=O)Cc3cccc(F)c3F)cc2)nc1N1CCN(CCN(C)C)CC1 | < 1 µM
COc1c(Nc2cc(C)[nH]n2)nc(Sc2ccc(S(=O)(=O)Cc3ccccc3)cc2)nc1N1CCN(C2CCN(Cc3ccccc3)CC2)CC1 | < 1 µM
COc1c(Nc2cc(C)[nH]n2)nc(Sc2ccc(S(=O)(=O)C(C)C)cc2)nc1N1CCN(CCN(C)C)CC1 | < 1 µM
COc1c(Nc2cc(C)[nH]n2)nc(Sc2ccc(S(=O)(=O)Cc3cccc([N+](=O)[O-])c3)cc2)nc1N1CCOC[C@@H]1CO | < 1 µM
COc1c(Nc2cc(C)[nH]n2)nc(Sc2ccc(S(=O)(=O)Cc3ccccc3NC(C)=O)cc2)nc1N1CCN(CCN(C)C)CC1 | < 1 µM
CCOc1c(Nc2cc(C)[nH]n2)nc(Sc2ccc(NC(=O)C3CC3)cc2)nc1N1CCN(C2CCNCC2)CC1 | 0.1 to 1 µM
COc1c(Nc2cc(C)[nH]n2)nc(Sc2ccc(S(=O)(=O)CCO)cc2)nc1N1CCN(CCN(C)C)CC1 | < 1 µM
COc1c(Nc2cc(C)[nH]n2)nc(Sc2ccc(S(=O)(=O)Cc3ccccc3[N+](=O)[O-])cc2)nc1N1CCN(CCN(C)C)CC1 | < 1 µM
COc1c(Nc2cc(C)[nH]n2)nc(Sc2ccc(S(=O)(=O)C(C)(C)c3c(F)c(F)c(F)c(F)c3F)cc2F)nc1N1CCC(N(C)C)CC1 | < 1 µM
CNCCN(C)c1nc(Sc2ccc(NC(=O)C3CC3)cc2)nc(Nc2cc(C)[nH]n2)c1OC | 0.1 to 1 µM
COc1c(Nc2cc(C)[nH]n2)nc(Sc2ccc(S(=O)(=O)Cc3ncco3)cc2)nc1N1CCN(CCN(C)C)CC1 | < 1 µM
COc1c(Nc2cc(C)[nH]n2)nc(Sc2ccc(S(=O)(=O)C3(c4cccc([N+](=O)[O-])c4F)CC3)cc2F)nc1N1CCC(C(N)=O)CC1 | < 1 µM
COc1c(Nc2cc(C)[nH]n2)nc(Sc2ccc(S(=O)(=O)Cc3ccccc3)cc2)nc1N1CCN(Cc2ccncc2)CC1 | < 1 µM
COc1c(Nc2cc(C)[nH]n2)nc(Sc2ccc(NC(C)=O)cc2)nc1N1CC2CCC(C1)N2CCN(C)C | < 1 µM
COc1c(C)nc(Sc2ccc(S(=O)(=O)Cc3ccccc3)cc2)nc1Nc1cc(C)[nH]n1 | < 1 µM
COc1c(Nc2cc(C)[nH]n2)nc(Sc2ccc(NC(N)=O)cc2)nc1N1CCN(CCN(C)C)CC1 | < 1 µM
CNc1nc(Sc2ccc(NC(=O)C3CC3)cc2)nc(Nc2cc(C)[nH]n2)c1OC | < 1 µM
COc1c(Nc2cc(C)[nH]n2)nc(Sc2ccc(S(=O)(=O)Cc3cccc([N+](=O)[O-])c3F)cc2F)nc1N1CCN(C)CC1 | < 1 µM
COc1c(Nc2cc(C)[nH]n2)nc(Sc2ccc(S(=O)(=O)Cc3cccc(F)c3F)cc2F)nc1N1CCOC[C@@H]1C | < 1 µM
CCN(CC)c1nc(Sc2ccc(NC(C)=O)cc2)nc(Nc2cc(C)[nH]n2)c1C | < 1 µM

Structure (SMILES) | IC50
COc1c(Nc2cc(C)[nH]n2)nc(Sc2ccc(S(=O)(=O)C(C)(C)c3c(F)c(F)cc(F)c3F)cc2F)nc1N1CC[C@H](N(C)C)C1 | < 1 µM
CCN(CC)c1nc(Sc2ccc(S(=O)(=O)Cc3ccccc3)cc2)nc(Nc2cc(C)[nH]n2)c1OC | < 1 µM
COc1c(Nc2cc(C)[nH]n2)nc(Sc2ccc(NC(C)=O)cc2)nc1C1=CCN(CC(=O)N(C)C)CC1 | < 1 µM
CSc1nc(Nc2cc(C)[nH]n2)c(C)c(N(C)C(C)C)n1 | < 1 µM
COc1c(Nc2cc(C)[nH]n2)nc(Sc2ccc(S(=O)(=O)Cc3cccc([N+](=O)[O-])c3F)cc2F)nc1N1CCCCC1 [drawing 379] | < 1 µM
COc1c(Nc2cc(C)[nH]n2)nc(Sc2ccc(S(=O)(=O)Cc3cccs3)cc2)nc1N1CCN(CCN(C)C)CC1 | < 1 µM
COc1c(Nc2cc(C)[nH]n2)nc(Sc2ccc(NC(=O)C3CC3)cc2)nc1N(C)C(C)C | 0.1 to 1 µM
COc1c(Nc2cc(C)[nH]n2)nc(Sc2ccc(S(C)(=O)=O)cc2Cl)nc1N1CCC(CCN(C)C)CC1 | < 1 µM
CCc1cc(Nc2nc(SC)nc(N3CCN(CCN(C)C)CC3)c2C)n[nH]1 | < 1 µM
CCOc1c(Nc2cc(C)[nH]n2)nc(Sc2ccc(NC(=O)C3CC3)cc2)nc1N1CCN(CC2CC2)CC1 | 0.1 to 1 µM
COc1c(Nc2cc(C)[nH]n2)nc(Sc2ccc(S(=O)(=O)Cc3ccccc3)cc2)nc1N1CCC(N2CCN(C)CC2)CC1 | < 1 µM
COc1c(Nc2cc(C)[nH]n2)nc(Sc2ccc(S(=O)(=O)Cc3ccccc3)cc2)nc1N1CCC(CCC23CC4CCC(C2)N43)CC1 (stereo not shown) | < 1 µM
COc1c(Nc2cc(C)[nH]n2)nc(Sc2ccc(NC(C)=O)cc2)nc1N1CCN(CCCN(C)C)CC1 | < 1 µM
CCOc1c(NCCOC)nc(Sc2ccc(NC(=O)C3CC3)cc2)nc1Nc1cc(C)[nH]n1 | 0.1 to 1 µM
COc1c(Nc2cc(C)[nH]n2)nc(Sc2ccc(NC(C)=O)cc2)nc1N1CCOC[C@@H]1C | < 1 µM
COc1c(Nc2cc(C)[nH]n2)nc(Sc2ccc(NC(=O)c3cccc([N+](=O)[O-])c3F)cc2F)nc1N1CCOCC1 | 0.1 to 1 µM
COc1c(Nc2cc(C)[nH]n2)nc(Sc2ccc(S(=O)(=O)Cc3ccccc3C(=O)O)cc2)nc1N1CCN(CCN(C)C)CC1 | < 1 µM
CCS(=O)(=O)c1ccc(Sc2nc(Nc3cc(C)[nH]n3)c(OC)c(N3CCC(CCN(C)C)CC3)n2)c(Cl)c1 | < 1 µM
COc1c(Nc2cc(C)[nH]n2)nc(Sc2ccc(S(=O)(=O)C(C)(C)c3cccc(Cl)c3F)cc2F)nc1N1CCC(CCN(C)C)CC1 | < 1 µM
COc1c(Nc2cc(C)[nH]n2)nc(Sc2ccc(NC(C)=O)cc2)nc1N1CCN(CCN2C3CCCC2CCC3)CC1 | < 1 µM

Continued, values first:

IC50 | Structure (SMILES)
< 1 µM | COc1c(Nc2cc(C)[nH]n2)nc(Sc2ccc(NC(=O)C3CCCC3)cc2)nc1N1CCNCC1
0.1 to 1 µM | CCOc1c(Nc2cc(C)[nH]n2)nc(Sc2ccc(NC(=O)C3CCCC3)cc2)nc1N1CCNCC1
< 1 µM | COc1c(Nc2cc(C)[nH]n2)nc(Sc2ccc(NC(C)=O)cc2)nc1N1CCC(O)CC1
< 1 µM | CC(=O)Nc1ccc(Sc2nc(Nc3cc(C)[nH]n3)c(C)c(N3CCCCC3)n2)cc1
< 1 µM | COCCN1CCN(c2nc(Sc3ccc(NC(=O)C4CC4)cc3)nc(Nc3cc(C)[nH]n3)c2OC)CC1
< 1 µM | CC(=O)Nc1ccc(Sc2nc(Nc3cc(C)[nH]n3)c(C)c(N3CCCCCC3)n2)cc1
> 1 µM | Cc1cc(Nc2nc(Sc3ccc(NC(=O)C4CC4)cc3)nc3c2CCC3)n[nH]1
< 1 µM | CC(=O)Nc1ccc(Sc2nc(Nc3cc(C)[nH]n3)c(Cl)c(N3CCC(O)CC3)n2)cc1
< 1 µM | CC(=O)N1CCN(c2nc(Sc3ccc(NC(=O)C4CCCC4)cc3)nc(Nc3cc(C)[nH]n3)c2C)CC1
< 1 µM | COCCN1CCN(c2nc(Sc3ccc(NC(C)=O)cc3)nc(Nc3cc(C)[nH]n3)c2OC)CC1
< 1 µM | Cc1ccc(Sc2nc(Nc3cc(C)[nH]n3)c(C)c(N3CCC(O)CC3)n2)cc1
< 1 µM | COc1c(Nc2cc(C)[nH]n2)nc(Sc2ccc(NC(=O)C3CCCC3)cc2)nc1N1CCOCC1
0.1 to 1 µM | COc1c(Nc2cc(C)[nH]n2)nc(Sc2ccc(NC(C)=O)cc2)nc1N1CCC(CCN2CCCCC2)CC1
< 1 µM | CSc1nc(Nc2cc(C)[nH]n2)c(C)c(N2CCCCC2)n1
< 1 µM | COc1c(Nc2cc(C)[nH]n2)nc(Sc2ccc(NC(C)=O)cc2)nc1N1CCN(C(=O)N(C)C)CC1
< 1 µM | CC(=O)Nc1ccc(Sc2nc(Nc3cc(C)[nH]n3)cc(N3CCCCC3)n2)cc1
< 1 µM | COc1c(Nc2cc(C)[nH]n2)nc(Sc2ccc(NC(C)=O)cc2)nc1N1CCN(CCN2CCCC2)CC1
< 1 µM | Cc1cc(Nc2nc(Sc3ccccc3)nc(N3CCCCC3)c2C)n[nH]1
